This note sets out measurements from paper PMC4719581, “Tankyrase inhibition impairs directional migration and invasion of lung cancer cells by affecting microtubule dynamics and polarity signals” (BMC Biology, 2016).

This assay deals with T1, TNKS2 (tankyrase 2) (Homo sapiens, UniProt Q9H2K2).
T1 construct: recombinant His-tagged human TNKS2 poly(adenosine diphosphate)-ribose polymerase (PARP) domain, baculovirus-expressed
T1 sequence (Q9H2K2 946-1162 limits assumed): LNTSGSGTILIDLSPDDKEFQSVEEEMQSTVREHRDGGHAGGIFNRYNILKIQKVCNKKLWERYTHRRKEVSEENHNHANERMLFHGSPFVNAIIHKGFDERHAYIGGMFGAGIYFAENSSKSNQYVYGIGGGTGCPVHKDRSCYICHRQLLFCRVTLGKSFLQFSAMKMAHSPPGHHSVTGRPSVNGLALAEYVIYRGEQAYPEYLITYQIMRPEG
In words: auto-PARsylation assay with purified PARP domain on Ni2+-coated Flashplate, radioactive scintillation readout. In kind it is biochemical.

With `CCc1cc2ccc(C(C)(C#N)Cc3cccc(C#N)c3)cc2[nH]c1=O` (single isomer, unassigned) [JNJ-BJ, (R or S)-3-[2-cyano-2-(3-ethyl-2-oxo-1H-quinolin-7-yl)propyl]benzonitrile], the IC50 turned out to be 0.13 µM.

As usually defined, the IC50 is the concentration that inhibits the measured activity by half.
